Assay results published in PubChem BioAssay (NCI).
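Step 1: Grow cells in 96-well plates. Step 2: Expose to compound for 48 hours at 5 concentrations. Step 3: Interpolate endpoints linearly; if unreached, use highest concentration. The concentration for 50% growth inhibition is given as GI50. At the TGI there is no net growth.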

Experiments:
Assay in all cases: inhibition of tumour cell growth, NCI panel, 48 h
SNB-75 CNS = tested on: SNB-75 CNS
BT-549 breast = tested on: BT-549 breast
OVCAR-3 ovarian = tested on: OVCAR-3 ovarian
RXF 393 renal = tested on: RXF 393 renal
LOX IMVI melanoma = tested on: LOX IMVI melanoma
MOLT-4 leukemia = tested on: MOLT-4 leukemia
MDA-MB-231 breast = tested on: MDA-MB-231 breast
T-47D breast = tested on: T-47D breast
OVCAR-4 ovarian = tested on: OVCAR-4 ovarian
CCRF-CEM leukemia = tested on: CCRF-CEM leukemia
SF-539 CNS = tested on: SF-539 CNS
OVCAR-8 ovarian = tested on: OVCAR-8 ovarian
M14 melanoma = tested on: M14 melanoma
UO-31 renal = tested on: UO-31 renal
HCC-2998 colon = tested on: HCC-2998 colon
MCF7 breast = tested on: MCF7 breast
NCI-H23 lung = tested on: NCI-H23 lung
IGROV1 ovarian = tested on: IGROV1 ovarian
NCI/ADR-RES ovarian = tested on: NCI/ADR-RES ovarian
COLO 205 colon = tested on: COLO 205 colon
UACC-257 melanoma = tested on: UACC-257 melanoma
PC-3 prostate = tested on: PC-3 prostate
MDA-MB-435 = tested on: MDA-MB-435
SK-MEL-5 melanoma = tested on: SK-MEL-5 melanoma
786-0 renal = tested on: 786-0 renal
UACC-62 melanoma = tested on: UACC-62 melanoma
KM12 colon = tested on: KM12 colon
SK-MEL-28 melanoma = tested on: SK-MEL-28 melanoma
SNB-19 CNS = tested on: SNB-19 CNS

Work on `O=C(NN1C(=O)/C(=C/C=C/c2ccc([N+](=O)[O-])o2)SC1=S)c1ccccc1O` yielded a GI50 (SNB-75 CNS) of 1290 nM, a TGI (SNB-75 CNS) of 5840 nM and a GI50 (BT-549 breast) of 673 nM. It also gave a TGI (BT-549 breast) of 1800 nM, a GI50 (OVCAR-3 ovarian) of 1230 nM and a TGI (OVCAR-3 ovarian) of 2540 nM. The GI50 (RXF 393 renal) was 1420 nM, the TGI (RXF 393 renal) was 2760 nM and the GI50 (LOX IMVI melanoma) was 194 nM. It also gave a TGI (LOX IMVI melanoma) of 402 nM, a GI50 (MOLT-4 leukemia) of 390 nM and a TGI (MOLT-4 leukemia) of 7560 nM. The GI50 (MDA-MB-231 breast) was 257 nM, the TGI (MDA-MB-231 breast) was 613 nM and the GI50 (T-47D breast) was 1630 nM. For the same compound, the TGI (T-47D breast) was 3230 nM, the GI50 (OVCAR-4 ovarian) was 1720 nM and the TGI (OVCAR-4 ovarian) was 3720 nM. The GI50 (CCRF-CEM leukemia) was 318 nM, the TGI (CCRF-CEM leukemia) was 1490 nM and the GI50 (SF-539 CNS) was 1310 nM. It also gave a TGI (SF-539 CNS) of 2670 nM, a GI50 (OVCAR-8 ovarian) of 366 nM and a TGI (OVCAR-8 ovarian) of 1600 nM. It also gave a GI50 (M14 melanoma) of 298 nM, a TGI (M14 melanoma) of 873 nM and a GI50 (UO-31 renal) of 1240 nM. The TGI (UO-31 renal) was 2490 nM, the GI50 (HCC-2998 colon) was 1370 nM and the TGI (HCC-2998 colon) was 2700 nM. It also gave a GI50 (MCF7 breast) of 432 nM, a TGI (MCF7 breast) of 2020 nM and a GI50 (NCI-H23 lung) of 846 nM. The TGI (NCI-H23 lung) was 2170 nM, the GI50 (IGROV1 ovarian) was 1230 nM and the TGI (IGROV1 ovarian) was 2480 nM. For the same compound, the GI50 (NCI/ADR-RES ovarian) was 1780 nM, the TGI (NCI/ADR-RES ovarian) was 5750 nM and the GI50 (COLO 205 colon) was 957 nM. The TGI (COLO 205 colon) was 2280 nM, the GI50 (UACC-257 melanoma) was 1720 nM and the TGI (UACC-257 melanoma) was 3600 nM. The GI50 (PC-3 prostate) was 1920 nM, the TGI (PC-3 prostate) was 4940 nM and the GI50 (MDA-MB-435) was 371 nM. It also gave a TGI (MDA-MB-435) of 1380 nM, a GI50 (SK-MEL-5 melanoma) of 771 nM and a TGI (SK-MEL-5 melanoma) of 2030 nM. For the same compound, the GI50 (786-0 renal) was 1110 nM, the TGI (786-0 renal) was 2330 nM and the GI50 (UACC-62 melanoma) was 675 nM. For the same compound, the TGI (UACC-62 melanoma) was 1900 nM, the GI50 (KM12 colon) was 1620 nM and the TGI (KM12 colon) was 3770 nM. It also gave a GI50 (SK-MEL-28 melanoma) of 1680 nM, a TGI (SK-MEL-28 melanoma) of 3130 nM and a GI50 (SNB-19 CNS) of 1760 nM. It also gave a TGI (SNB-19 CNS) of 3340 nM.
